Counter-ions that a name gives are not always drawn.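 96-well plates; 48 h exposure; 5 concentrations. Endpoints by linear interpolation between flanking doses. Not reached: highest tested concentration assigned. Abbreviation: GI50, concentration required for 50% inhibition of growth.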 The source made the active and inactive calls. No stated cut-off is given here; in the data, active = GI50 up to about 1.1 µM and inactive = higher.
What was measured:
Assay in all cases: NCI-60 cell line screen, 48 h
A498 = system: A498
HCT-116 = system: HCT-116
HOP-62 = system: HOP-62
HT-29 = system: HT-29
M19-MEL = system: M19-MEL
MOLT-4 = system: MOLT-4
Malme-3M = system: Malme-3M
RXF 393 = system: RXF 393
SK-MEL-28 = system: SK-MEL-28
SN12C = system: SN12C
SNB-78 = system: SNB-78
SW-620 = system: SW-620
UACC-257 = system: UACC-257
UACC-62 = system: UACC-62
UO-31 = system: UO-31
OVCAR-3 = system: OVCAR-3
MCF7 = system: MCF7
MDA-MB-231 = system: MDA-MB-231
MDA-N = system: MDA-N
NCI/ADR-RES = system: NCI/ADR-RES

Row | Structure (SMILES) | GI50 (A498) | GI50 (HCT-116) | GI50 (HOP-62) | GI50 (HT-29) | GI50 (M19-MEL) | GI50 (MOLT-4) | GI50 (Malme-3M) | GI50 (RXF 393) | GI50 (SK-MEL-28) | GI50 (SN12C) | GI50 (SNB-78) | GI50 (SW-620) | GI50 (UACC-257) | GI50 (UACC-62) | GI50 (UO-31) | GI50 (OVCAR-3) | GI50 (MCF7) | GI50 (MDA-MB-231) | GI50 (MDA-N) | GI50 (NCI/ADR-RES)
1 | COc1ccc2c3ccc4c(c3n(C)c2c1)C(=O)c1ccccc1C4=O | 48.4 µM (inactive) | 30.1 µM (inactive) | > 100 µM (inactive) | 11.7 µM (inactive) | > 100 µM (inactive) | > 100 µM (inactive) | 85.7 µM (inactive) | > 100 µM (inactive) | > 100 µM (inactive) | > 100 µM (inactive) | > 100 µM (inactive) | 80.2 µM (inactive) | > 100 µM (inactive) | > 100 µM (inactive) | > 100 µM (inactive) |  |  |  |  | 
2 | COc1cc(/C=N/c2nncs2)ccc1O | > 100 µM (inactive) | > 100 µM (inactive) | > 100 µM (inactive) | > 100 µM (inactive) | > 100 µM (inactive) | > 100 µM (inactive) | > 100 µM (inactive) | > 100 µM (inactive) | > 100 µM (inactive) | > 100 µM (inactive) | > 100 µM (inactive) | > 100 µM (inactive) | > 100 µM (inactive) | > 100 µM (inactive) | > 100 µM (inactive) |  |  |  |  | 
3 | O=C(O)CCSC(=O)Nc1ccccc1 | > 100 µM (inactive) | > 100 µM (inactive) | > 100 µM (inactive) | > 100 µM (inactive) |  | > 100 µM (inactive) |  | > 100 µM (inactive) | > 100 µM (inactive) | > 100 µM (inactive) | > 100 µM (inactive) | 92.9 µM (inactive) | > 100 µM (inactive) | 64.4 µM (inactive) | > 100 µM (inactive) | > 100 µM (inactive) |  |  |  | 
4 | N#CC(C#N)=C1NN=C(Cl)c2ccccc21 |  |  | 67.8 µM (inactive) | > 100 µM (inactive) | > 100 µM (inactive) | > 100 µM (inactive) | 30.3 µM (inactive) | > 100 µM (inactive) | 61.8 µM (inactive) | 96.4 µM (inactive) |  | > 100 µM (inactive) | 98.6 µM (inactive) | 70.5 µM (inactive) | 50.7 µM (inactive) | > 100 µM (inactive) |  |  |  | 
5 | CN(C)c1ccc(/C=C/C(=O)c2ccccc2)cc1Br | > 100 µM (inactive) |  | 48.5 µM (inactive) | 19.7 µM (inactive) | 18.7 µM (inactive) | 23 µM (inactive) | 17.6 µM (inactive) |  | 13.7 µM (inactive) | 21.1 µM (inactive) |  | 19.9 µM (inactive) | 22.3 µM (inactive) | 16.5 µM (inactive) | 18.5 µM (inactive) | 17.8 µM (inactive) |  |  |  | 
6 | O=S1(=O)OCCOS(=O)(=O)C1I | > 100 µM (inactive) | > 100 µM (inactive) | > 100 µM (inactive) | > 100 µM (inactive) | > 100 µM (inactive) | 75.3 µM (inactive) | > 100 µM (inactive) |  | > 100 µM (inactive) | > 100 µM (inactive) | > 100 µM (inactive) | > 100 µM (inactive) | > 100 µM (inactive) | 40.1 µM (inactive) | 48.5 µM (inactive) | > 100 µM (inactive) |  |  |  | 
7 | OCC(O)C(O)C(O)c1nn(-c2ccc(Cl)cc2)c2nc3cc(Cl)c(Cl)cc3nc12 (centres undefined) |  | > 100 µM (inactive) | 20.1 µM (inactive) | > 100 µM (inactive) | > 100 µM (inactive) | 52.5 µM (inactive) | 15.2 µM (inactive) | 21.8 µM (inactive) | 61.1 µM (inactive) | > 100 µM (inactive) | 20.7 µM (inactive) | > 100 µM (inactive) | 86.3 µM (inactive) | 47 µM (inactive) | 71.6 µM (inactive) | > 100 µM (inactive) |  |  |  | 
8 | COC(=O)C(CC=O)C(=O)C(=O)Nc1cccc(C(F)(F)F)c1 (centres undefined) |  | > 100 µM (inactive) | > 100 µM (inactive) | > 100 µM (inactive) | > 100 µM (inactive) | > 100 µM (inactive) | > 100 µM (inactive) | > 100 µM (inactive) | > 100 µM (inactive) | > 100 µM (inactive) | > 100 µM (inactive) | > 100 µM (inactive) | > 100 µM (inactive) | > 100 µM (inactive) | > 100 µM (inactive) | > 100 µM (inactive) |  |  |  | 
9 | COc1cc2c(cc1O)[C@H](Cc1ccc(Oc3cc(C[C@H]4c5cc(OC)c(OC)cc5CCN4C)ccc3OC)cc1)NCC2 | 13.7 µM (inactive) | 8.11 µM (inactive) | > 10 µM (inactive) | 6.22 µM (inactive) | 22.6 µM (inactive) | 3.25 µM (inactive) | 22.1 µM (inactive) | 3.77 µM (inactive) | 16.8 µM (inactive) | 14.8 µM (inactive) |  | 11.6 µM (inactive) | 15.8 µM (inactive) | 17.8 µM (inactive) | 8.75 µM (inactive) | 10.5 µM (inactive) |  |  |  | 
10 | CC(C)c1ccc(C(c2ccc(OCC(=O)O)cc2)c2ccc(C(C)C)cc(=O)c2O)c(O)c(=O)c1 | 23.9 µM (inactive) | 3.76 µM (inactive) | 2.79 µM (inactive) | 3.92 µM (inactive) | 4.94 µM (inactive) | 3.73 µM (inactive) |  | 10.2 µM (inactive) | 4.81 µM (inactive) | 4.15 µM (inactive) | 6.79 µM (inactive) | 4.8 µM (inactive) | 5.6 µM (inactive) | 3.55 µM (inactive) |  | 2.77 µM (inactive) |  |  |  | 
11 | COc1ccc2[nH]c3c(C)c4ccnc(NCCCN(C)CCCN)c4c(C)c3c2c1 | 0.217 µM (active) | 0.107 µM (active) | 0.109 µM (active) | 0.042 µM (active) |  | 0.111 µM (active) | 0.31 µM (active) | 0.0622 µM (active) | 0.719 µM (active) | 0.0274 µM (active) |  | 0.102 µM (active) | 0.979 µM (active) | 0.22 µM (active) | 0.207 µM (active) | 0.469 µM (active) | 0.0263 µM (active) | 0.0873 µM (active) | 0.214 µM (active) | 0.394 µM (active)
12 | Cc1cc2c(=O)cc(-c3ccc(C(=O)O)cc3)oc2c(C(N)=O)c1C | > 100 µM (inactive) | > 100 µM (inactive) | > 100 µM (inactive) | > 100 µM (inactive) | > 100 µM (inactive) | > 100 µM (inactive) | > 100 µM (inactive) |  | > 100 µM (inactive) | > 100 µM (inactive) | > 100 µM (inactive) | > 100 µM (inactive) | > 100 µM (inactive) | > 100 µM (inactive) | > 100 µM (inactive) | > 100 µM (inactive) |  |  |  | 
13 | COC(=O)C(=O)C1(CCC(C)=O)c2ccccc2-c2ccccc21 | 88.5 µM (inactive) | 43.6 µM (inactive) | 68.7 µM (inactive) | 79.8 µM (inactive) | > 100 µM (inactive) | 33.4 µM (inactive) | 49.7 µM (inactive) | 57.4 µM (inactive) | 94 µM (inactive) | > 100 µM (inactive) |  | > 100 µM (inactive) | 55.2 µM (inactive) | 97.7 µM (inactive) | 41 µM (inactive) | 44.6 µM (inactive) |  |  |  | 
14 | COc1ccccc1NC(=O)O/N=C(/Cl)C(C)C | 15.6 µM (inactive) | 14.1 µM (inactive) | 12.5 µM (inactive) | 3.49 µM (inactive) |  | 1.92 µM (inactive) | 2.78 µM (inactive) | 14.9 µM (inactive) | 13.6 µM (inactive) | 15.4 µM (inactive) |  | 1.82 µM (inactive) | 13.7 µM (inactive) | 17.5 µM (inactive) | 18.8 µM (inactive) | 6.19 µM (inactive) | > 10 µM (inactive) | 7.19 µM (inactive) | 13.6 µM (inactive) | 15.3 µM (inactive)
15 | CCc1ccc2c(c1)N(CC(C)CN(C)C)c1ccccc1S2 (centres undefined) [ETYMEMAZINE HYDROCHLORIDE] | 7.38 µM (inactive) | 3.65 µM (inactive) | 6.38 µM (inactive) | 3.12 µM (inactive) |  | 0.736 µM (active) | 4.11 µM (inactive) | 2.79 µM (inactive) | 2.21 µM (inactive) | 7.21 µM (inactive) |  | 5.53 µM (inactive) | 2.74 µM (inactive) | 5.31 µM (inactive) | 2.73 µM (inactive) | 4.88 µM (inactive) | 3.92 µM (inactive) | 4.89 µM (inactive) | 5.5 µM (inactive) | 5.22 µM (inactive)
16 | CCCN(CCCCN1C(=O)c2ccccc2C1=O)CC1COc2ccccc2O1 (centres undefined) | > 100 µM (inactive) | 59.4 µM (inactive) | > 100 µM (inactive) | 33.6 µM (inactive) |  | 23.3 µM (inactive) | > 100 µM (inactive) | 94.4 µM (inactive) | 88.5 µM (inactive) | > 100 µM (inactive) |  | > 100 µM (inactive) | 65.9 µM (inactive) | > 100 µM (inactive) | 51.9 µM (inactive) | > 100 µM (inactive) | 53.1 µM (inactive) | > 100 µM (inactive) | > 100 µM (inactive) | 61.1 µM (inactive)
17 | COc1cc(/C=C(\C#N)C(=O)c2ccccc2)cc(OC)c1OC |  | > 100 µM (inactive) | > 100 µM (inactive) | > 100 µM (inactive) | > 100 µM (inactive) | > 100 µM (inactive) | > 100 µM (inactive) | 29.6 µM (inactive) | > 100 µM (inactive) | > 100 µM (inactive) | > 100 µM (inactive) | > 100 µM (inactive) | > 100 µM (inactive) | > 100 µM (inactive) | > 100 µM (inactive) | > 100 µM (inactive) |  |  |  | 
18 | CCOP(=O)(OCC)/C(F)=C/c1ccc(F)cc1 | > 100 µM (inactive) | > 100 µM (inactive) | > 100 µM (inactive) | > 100 µM (inactive) |  | > 100 µM (inactive) | > 100 µM (inactive) | > 100 µM (inactive) | > 100 µM (inactive) | > 100 µM (inactive) |  | > 100 µM (inactive) | > 100 µM (inactive) | 91.2 µM (inactive) | > 100 µM (inactive) | > 100 µM (inactive) | > 100 µM (inactive) | > 100 µM (inactive) | > 100 µM (inactive) | > 100 µM (inactive)
